Assay results reported in patent publication US9128108B2, “Mephedrone detection” (Randox Laboratories Limted, priority 2010, dated 2015).

System: raised antibody (polyclonal IgG raised against Immunogen 1, Hapten 1-BSA)
Experiment: Competitive ELISA with Hapten 1-HRP conjugate confirming binding of raised antibody
Set-up: species or system sheep
Conditions: for binding of raised antibody (in words): competitive immunoassay at different antibody and conjugate concentrations; for Standard Absorb. / % Drop: standard 100 ng/ml; for Standard Absorb.: absorbance at 450 nm; for % Drop: drop of absorbance versus zero standard
Procedure: The process of developing an immunoassay is well known to the person skilled in the art. Briefly, for a competitive immunoassay in which the target analyte is a non-immunogenic molecule such as a hapten, the following process is conducted: antibodies are produced by immunising an animal, preferably a mammalian animal, by repeated administration of an immunogen. The serum from the immunised animal is collected when the antibody titre is sufficiently high. A conjugate is added to a sample containing the target analyte and the raised antibodies, and the conjugate and analyte compete for binding to the antibodies. The process may comprise fixing said serum antibodies to a backing substrate such as a polystyrene solid support or a biochip. The antibodies can be polyclonal or monoclonal, monoclonal antibodies being obtainable from polyclonal sera using standard techniques. The signal emitted in the immunoassay is proportionate to the amount of conjugate bound to the antibodies which in turn is inversely proportionate to the analyte concentration. The signal can be detected or quantified by comparison with a calibrator.
Hapten 1 was conjugated to bovine serum albumin (BSA). The resulting immunogen (Immunogen 1) was administered to adult sheep on a monthly basis to provide target-specific polyclonal antisera. IgG was extracted from the antisera via caprylic acid/ammonium sulphate precipitation of immunoglobulin. Microtitre plates (Thermo Scientific, 468667) were coated with antibody (125 μl) in coating buffer (10 mM Tris pH 8.5) at 37° C. for 2 hours. The plates were then washed 4 times over 10 minutes with working strength TBST. 50 μl of sample/standard (Methcathinone, Sigma M-5037; Cathinone, Sigma C-3196 and Mephedrone, Randox LK973) was added to the appropriate wells in triplicate, followed by 75 μl of Hapten 1-HRP conjugate and incubated at 25° C. for 1 hour. The plates were then washed and 125 μl of TMB (Randox, 4380-15) was added to each well and left at room temperature for 20 mins in the dark. The reaction was stopped using 125 μl of 0.2M sulphuric acid. The absorbances were read at 450 nm with an ELISA microplate reader (BIO-TEK Instruments, Elx800) and the means calculated.
Competitive immunoassay results at different antibody and conjugate concentrations show the raised antibody binds to mephedrone, methcathinone and cathinone (Table 1).

[1] = antibody 1.25 ug/ml, Hapten 1-HRP conjugate dilution 1/8K, zero absorb. 1.986
[2] = antibody 1.25 ug/ml, Hapten 1-HRP conjugate dilution 1/8K
[3] = antibody 5 ug/ml, Hapten 1-HRP conjugate dilution 1/4K, zero absorb. 1.961
[4] = antibody 5 ug/ml, Hapten 1-HRP conjugate dilution 1/4K

Row | SMILES | binding of raised antibody (in words) | Standard Absorb. [1] | % Drop [2] [%] | Standard Absorb. [3] | % Drop [4] [%]
1 | CNC(C)C(=O)c1ccc(C)cc1 (racemic) [Mephedrone, (RS)-2-methylamino-1-(4-methylphenyl)propan-1-one] | binds | 0.087 | 95.6 | 0.120 | 93.9
2 | C[C@H](N)C(=O)c1ccccc1 [Cathinone] | binds | 1.515 | 23.7 | 1.600 | 18.4
3 | CNC(C)C(=O)c1ccccc1 (stereo not drawn) [Methcathinone, 2-methylamino-1-phenylpropan-1-one] | binds | 0.169 | 91.5 | 0.205 | 89.5
